Experimental data published in PubChem BioAssay (NCI).
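The concentration for 50% growth inhibition is given as GI50. TGI denotes the concentration required for complete inhibition of growth.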

Columns and labels:
Test in all cases: growth of human tumour cells (NCI), 384-well format
[1] = tested on: HCC-2998 colon
[2] = tested on: MDA-MB-231 breast
[3] = tested on: SF-295 CNS
[4] = tested on: UO-31 renal
[5] = tested on: HCT-15 colon
[6] = tested on: RPMI-8226 leukemia
[7] = tested on: LOX IMVI melanoma
[8] = tested on: MALME-3M melanoma
[9] = tested on: HL-60(TB) leukemia
[10] = tested on: PC-3 prostate
[11] = tested on: NCI-H522 lung
[12] = tested on: SF-268 CNS
[13] = tested on: MDA-MB-435 melanoma
[14] = tested on: NCI-H23 lung
[15] = tested on: SNB-19 CNS
[16] = tested on: DU-145 prostate
[17] = tested on: SN12C renal
[18] = tested on: OVCAR-3 ovarian
[19] = tested on: SR leukemia
[20] = tested on: U251 glioblastoma
[21] = tested on: NCI-H322M lung
[22] = tested on: KM12 colon
[23] = tested on: RXF 393 renal
[24] = tested on: BT-549 breast
[25] = tested on: MOLT-4 leukemia
[26] = tested on: HT29 colon
[27] = tested on: OVCAR-4 ovarian
[28] = tested on: SK-MEL-28 melanoma
[29] = tested on: HOP-92 NSCLC
[30] = tested on: SNB-75 CNS
[31] = tested on: CCRF-CEM leukemia
[32] = tested on: EKVX NSCLC
[33] = tested on: A498 renal
[34] = tested on: NCI-H460 NSCLC
[35] = tested on: OVCAR-8 ovarian
[36] = tested on: UACC-257 melanoma
[37] = tested on: NCI/ADR-RES ovarian
[38] = tested on: NCI-H226 lung
[39] = tested on: K-562 leukemia
[40] = tested on: OVCAR-5 ovarian
[41] = tested on: HOP-62 NSCLC
[42] = tested on: SK-MEL-5 melanoma
[43] = tested on: HS 578T breast
[44] = tested on: M14 melanoma
[45] = tested on: SF-539 CNS
[46] = tested on: MDA-MB-468 breast
[47] = tested on: COLO 205 colon
[48] = tested on: SW-620 colon
[49] = tested on: IGROV1 ovarian

`CCC(CC)c1cc(N[C@H]2CC[C@H](N)C2)n2nccc2n1` gave a GI50 [1] of 235 nM, a TGI [1] of 572 nM and a GI50 [2] of 269 nM. It also gave a TGI [2] of 778 nM, a GI50 [3] of 223 nM and a TGI [3] of 499 nM. It also gave a GI50 [4] of 388 nM, a TGI [4] of 1970 nM and a GI50 [5] of 348 nM. The TGI [5] was 1390 nM, the GI50 [6] was 181 nM and the TGI [6] was 337 nM. The GI50 [7] was 190 nM, the TGI [7] was 343 nM and the GI50 [8] was 761 nM. For the same compound, the TGI [8] was 1950 nM, the GI50 [9] was 214 nM and the TGI [9] was 378 nM. It also gave a GI50 [10] of 262 nM, a TGI [10] of 723 nM and a GI50 [11] of 209 nM. The TGI [11] was 455 nM, the GI50 [12] was 274 nM and the TGI [12] was 724 nM. For the same compound, the GI50 [13] was 320 nM, the TGI [13] was 903 nM and the GI50 [14] was 220 nM. For the same compound, the TGI [14] was 505 nM, the GI50 [15] was 377 nM and the TGI [15] was over 100000 nM. It also gave a GI50 [16] of 313 nM, a TGI [16] of 933 nM and a GI50 [17] of 241 nM. The TGI [17] was 598 nM, the GI50 [18] was 200 nM and the TGI [18] was 411 nM. The GI50 [19] was 125 nM, the TGI [19] was 253 nM and the GI50 [20] was 334 nM. For the same compound, the TGI [20] was 995 nM, the GI50 [21] was 403 nM and the TGI [21] was 1510 nM. The GI50 [22] was 295 nM, the TGI [22] was 906 nM and the GI50 [23] was 191 nM. It also gave a TGI [23] of 366 nM, a GI50 [24] of 207 nM and a TGI [24] of 459 nM. The GI50 [25] was 247 nM, the TGI [25] was 528 nM and the GI50 [26] was 406 nM. The TGI [26] was over 100000 nM, the GI50 [27] was 192 nM and the TGI [27] was 414 nM. The GI50 [28] was 969 nM, the TGI [28] was 2220 nM and the GI50 [29] was 340 nM. It also gave a TGI [29] of 24300 nM, a GI50 [30] of 380 nM and a TGI [30] of 1190 nM. For the same compound, the GI50 [31] was 210 nM, the TGI [31] was 423 nM and the GI50 [32] was 516 nM. The TGI [32] was 2650 nM, the GI50 [33] was 218 nM and the TGI [33] was 457 nM. The GI50 [34] was 195 nM, the TGI [34] was 461 nM and the GI50 [35] was 329 nM. The TGI [35] was 1760 nM, the GI50 [36] was 553 nM and the TGI [36] was 1770 nM. For the same compound, the GI50 [37] was 2250 nM, the TGI [37] was 9280 nM and the GI50 [38] was 226 nM. It also gave a TGI [38] of 513 nM, a GI50 [39] of 345 nM and a TGI [39] of 1230 nM. It also gave a GI50 [40] of 392 nM, a TGI [40] of over 100000 nM and a GI50 [41] of 234 nM. For the same compound, the TGI [41] was 532 nM, the GI50 [42] was 182 nM and the TGI [42] was 331 nM. It also gave a GI50 [43] of 269 nM, a TGI [43] of 628 nM and a GI50 [44] of 276 nM. It also gave a TGI [44] of 766 nM, a GI50 [45] of 210 nM and a TGI [45] of 452 nM. For the same compound, the GI50 [46] was 254 nM, the TGI [46] was 612 nM and the GI50 [47] was 267 nM. The TGI [47] was 646 nM, the GI50 [48] was 360 nM and the TGI [48] was 8000 nM. For the same compound, the GI50 [49] was 414 nM and the TGI [49] was over 100000 nM.
